pEC50, pIC50, pKi: −log10 of the molar value.
What was measured:
Menin-MLL = Menin-MLL (Homo sapiens (Human), UniProt O00255); assay: Determination of binding constants (Ki) to Menin-MLL (HTRF); settings: HTRF, 0.25 nM H-FL-Menin, 3.2 nM FITC-MLL-4-43, 24 hr incubation; for pKi: read-out: Menin-MLL Ki HTRF Assay: Ki
hERG = hERG (Homo sapiens (Human), UniProt Q12809); assay: Patch clamp assay (hERG tail currents, whole-cell); format: cell-based; settings: hERG transfected HEK 293 cells; for hERG % Remaining 10 μM: 10 μM compound; for hERG % Remaining 30 μM: 30 μM compound
hERG, sequence (Q12809 whole entry): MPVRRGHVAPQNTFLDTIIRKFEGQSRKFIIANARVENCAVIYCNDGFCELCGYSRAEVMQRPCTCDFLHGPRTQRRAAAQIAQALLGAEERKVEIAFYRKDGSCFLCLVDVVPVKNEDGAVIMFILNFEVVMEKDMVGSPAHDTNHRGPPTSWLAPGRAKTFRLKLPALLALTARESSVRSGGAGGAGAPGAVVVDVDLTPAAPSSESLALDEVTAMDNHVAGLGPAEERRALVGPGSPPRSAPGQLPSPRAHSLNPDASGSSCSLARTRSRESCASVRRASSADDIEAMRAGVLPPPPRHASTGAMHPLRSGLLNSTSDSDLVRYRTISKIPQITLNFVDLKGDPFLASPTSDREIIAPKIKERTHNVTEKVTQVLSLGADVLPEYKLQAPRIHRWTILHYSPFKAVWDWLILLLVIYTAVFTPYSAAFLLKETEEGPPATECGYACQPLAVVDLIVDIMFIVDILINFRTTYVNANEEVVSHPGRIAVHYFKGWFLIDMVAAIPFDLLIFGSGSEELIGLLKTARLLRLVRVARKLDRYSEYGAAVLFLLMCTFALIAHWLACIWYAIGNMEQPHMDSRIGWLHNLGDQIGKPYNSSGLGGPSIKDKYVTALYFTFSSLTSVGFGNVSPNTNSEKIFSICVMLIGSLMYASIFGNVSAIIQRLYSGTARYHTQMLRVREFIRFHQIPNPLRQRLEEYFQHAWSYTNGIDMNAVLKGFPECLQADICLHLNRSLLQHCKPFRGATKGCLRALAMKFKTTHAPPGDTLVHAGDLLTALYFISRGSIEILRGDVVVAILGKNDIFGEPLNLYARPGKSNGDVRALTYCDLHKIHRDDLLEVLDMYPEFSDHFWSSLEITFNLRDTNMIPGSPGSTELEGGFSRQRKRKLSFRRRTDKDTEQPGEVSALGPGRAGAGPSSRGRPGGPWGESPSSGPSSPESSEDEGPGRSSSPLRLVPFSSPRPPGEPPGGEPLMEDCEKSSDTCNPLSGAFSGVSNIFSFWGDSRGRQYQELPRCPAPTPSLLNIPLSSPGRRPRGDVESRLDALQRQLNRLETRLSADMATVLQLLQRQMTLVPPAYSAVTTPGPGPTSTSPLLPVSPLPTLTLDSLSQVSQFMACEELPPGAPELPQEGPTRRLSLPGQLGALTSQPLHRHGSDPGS

Menin-MLL, sequence (O00255 whole entry): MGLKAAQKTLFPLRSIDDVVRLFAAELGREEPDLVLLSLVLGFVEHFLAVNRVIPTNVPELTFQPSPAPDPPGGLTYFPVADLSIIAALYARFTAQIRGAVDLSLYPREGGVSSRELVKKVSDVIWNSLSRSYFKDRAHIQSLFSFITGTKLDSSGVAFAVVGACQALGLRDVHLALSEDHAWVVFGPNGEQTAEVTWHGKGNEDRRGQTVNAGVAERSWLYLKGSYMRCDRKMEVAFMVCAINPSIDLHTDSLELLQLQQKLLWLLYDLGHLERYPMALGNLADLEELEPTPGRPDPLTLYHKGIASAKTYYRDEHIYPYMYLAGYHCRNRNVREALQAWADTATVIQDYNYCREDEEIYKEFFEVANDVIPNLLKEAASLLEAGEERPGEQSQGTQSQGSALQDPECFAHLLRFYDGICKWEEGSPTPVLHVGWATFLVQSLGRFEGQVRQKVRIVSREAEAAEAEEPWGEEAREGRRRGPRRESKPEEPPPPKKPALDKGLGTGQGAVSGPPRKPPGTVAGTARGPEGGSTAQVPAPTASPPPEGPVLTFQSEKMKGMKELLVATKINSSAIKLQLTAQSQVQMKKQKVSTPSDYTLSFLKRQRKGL

Structure (SMILES): CCN(C(=O)c1cc(F)ccc1Oc1cncnc1N1CC2(CCN(C[C@@H]3CC[C@@H](NC(=O)NCC(F)(F)F)CO3)CC2)C1)C(C)C [Compound 37, N-ethyl-5-fluoro-N-isopropyl-2-((4-(7-(((2S,5R)-5-(3-(2,2,2-trifluoroethyl)ureido)tetrahydro-2H-pyran-2-yl)methyl)-2,7-diazaspiro[3.5]nonan-2-yl)pyrimidin-5-yl)oxy)benzamide]
- pEC50 (Menin-MLL): > 7.30
- pKi (Menin-MLL): > 9.00
- hERG % Remaining 10 μM (hERG): + (“+” means <33%)
- hERG % Remaining 30 μM (hERG): + (“+” means <33%)

Structure (SMILES): CCS(=O)(=O)N[C@@H]1CC[C@@H](CN2CCC3(CC2)CN(c2ncncc2Oc2ccc(F)cc2C(=O)N(CCC#N)C(C)C)C3)OC1 [Compound 43, N-(2-cyanoethyl)-2-((4-(7-(((2S,5R)-5-(ethylsulfonamido)tetrahydro-2H-pyran-2-yl)methyl)-2,7-diazaspiro[3.5]nonan-2-yl)pyrimidin-5-yl)oxy)-5-fluoro-N-isopropylbenzamide]
- pEC50 (Menin-MLL): > 7.30
- pKi (Menin-MLL): > 9.00
- hERG % Remaining 10 μM (hERG): +++ (“+++” means ≥66%)
- hERG % Remaining 30 μM (hERG): ++ (“++” means ≥33% and <66%)

Structure (SMILES): CCS(=O)(=O)N[C@@H]1CC[C@@H](CN2CCC3(CC2)CN(c2ncncc2Oc2ccc(F)cc2C(=O)N(C(C)C)C2CC(F)(F)C2)C3)OC1 [Compound 44, N-(3,3-difluorocyclobutyl)-2-((4-(7-(((2S,5R)-5-(ethylsulfonamido)tetrahydro-2H-pyran-2-yl)methyl)-2,7-diazaspiro[3.5]nonan-2-yl)pyrimidin-5-yl)oxy)-5-fluoro-N-isopropylbenzamide]
- pEC50 (Menin-MLL): > 7.30
- pKi (Menin-MLL): > 9.00
- hERG % Remaining 10 μM (hERG): +++ (“+++” means ≥66%)
- hERG % Remaining 30 μM (hERG): ++ (“++” means ≥33% and <66%)

Structure (SMILES): CCN(C(=O)c1cc(F)ccc1Oc1cncnc1N1CC2(CCN(C[C@@H]3CC[C@@H](NS(=O)(=O)c4ccccc4)CO3)CC2)C1)C(C)C [Compound 45, N-ethyl-5-fluoro-N-isopropyl-2-((4-(7-(((2S,5R)-5-(phenylsulfonamido)tetrahydro-2H-pyran-2-yl)methyl)-2,7-diazaspiro[3.5]nonan-2-yl)pyrimidin-5-yl)oxy)benzamide]
- pEC50 (Menin-MLL): > 7.30
- pKi (Menin-MLL): > 9.00
- hERG % Remaining 10 μM (hERG): ++ (“++” means ≥33% and <66%)
- hERG % Remaining 30 μM (hERG): + (“+” means <33%)

Structure (SMILES): CC(C)N(CC(F)F)C(=O)c1cc(F)ccc1Oc1cncnc1N1CC2(CCN(C[C@@H]3CC[C@@H](NS(=O)(=O)C4CC4)CO3)CC2)C1 [Compound 47, 2-((4-(7-(((2S,5R)-5-(cyclopropanesulfonamido)tetrahydro-2H-pyran-2-yl)methyl)-2,7-diazaspiro[3.5]nonan-2-yl)pyrimidin-5-yl)oxy)-N-(2,2-difluoroethyl)-5-fluoro-N-isopropylbenzamide]
- pEC50 (Menin-MLL): > 7.30
- pKi (Menin-MLL): > 9.00
- hERG % Remaining 10 μM (hERG): +++ (“+++” means ≥66%)
- hERG % Remaining 30 μM (hERG): ++ (“++” means ≥33% and <66%)

Structure (SMILES): CCN(C(=O)c1cc(F)ccc1Oc1cncnc1N1CC2(CCN(C[C@@H]3CC[C@@H](NS(=O)(=O)N(C)C)CO3)CC2)C1)C(C)C [Compound 49, 2-((4-(7-(((2S,5R)-5-((N,N-dimethylsulfamoyl)amino)tetrahydro-2H-pyran-2-yl)methyl)-2,7-diazaspiro[3.5]nonan-2-yl)pyrimidin-5-yl)oxy)-N-ethyl-5-fluoro-N-isopropylbenzamide]
- pEC50 (Menin-MLL): > 7.30
- pKi (Menin-MLL): > 9.00
- hERG % Remaining 10 μM (hERG): +++ (“+++” means ≥66%)
- hERG % Remaining 30 μM (hERG): +++ (“+++” means ≥66%)
- pIC50 (hERG): ≤ 4.30

Structure (SMILES): CCN(C(=O)c1cc(F)ccc1Oc1cncnc1N1CC2(CCN(C[C@@H]3CC[C@@H](NS(=O)(=O)c4ccccn4)CO3)CC2)C1)C(C)C [Compound 58, N-ethyl-5-fluoro-N-isopropyl-2-((4-(7-(((2S,5R)-5-(pyridine-2-sulfonamido)tetrahydro-2H-pyran-2-yl)methyl)-2,7-diazaspiro[3.5]nonan-2-yl)pyrimidin-5-yl)oxy)benzamide]
- pEC50 (Menin-MLL): > 7.30
- pKi (Menin-MLL): > 9.00
- hERG % Remaining 10 μM (hERG): +++ (“+++” means ≥66%)
- hERG % Remaining 30 μM (hERG): ++ (“++” means ≥33% and <66%)

Structure (SMILES): CCN(C(=O)c1cc(F)ccc1Oc1cncnc1N1CC2(CCN(C[C@@H]3CC[C@@H](NS(=O)(=O)c4ccccc4Cl)CO3)CC2)C1)C(C)C [Compound 59, 2-((4-(7-(((2S,5R)-5-((2-Chlorophenyl)sulfonamido)tetrahydro-2H-pyran-2-yl)methyl)-2,7-diazaspiro[3.5]nonan-2-yl)pyrimidin-5-yl)oxy)-N-ethyl-5-fluoro-N-isopropylbenzamide]
- pEC50 (Menin-MLL): > 7.30
- pKi (Menin-MLL): > 9.00
- hERG % Remaining 10 μM (hERG): + (“+” means <33%)
- hERG % Remaining 30 μM (hERG): + (“+” means <33%)

Structure (SMILES): CCN(C(=O)c1cc(F)ccc1Oc1cncnc1N1CC2(CCN(C[C@@H]3CC[C@@H](NS(=O)(=O)c4ccc(OC)cc4)CO3)CC2)C1)C(C)C [Compound 62, N-Ethyl-5-fluoro-N-isopropyl-2-((4-(7-(((2S,5R)-5-((4-methoxyphenyl)sulfonamido)tetrahydro-2H-pyran-2-yl)methyl)-2,7-diazaspiro[3.5]nonan-2-yl)pyrimidin-5-yl)oxy)benzamide]
- pEC50 (Menin-MLL): > 7.30
- pKi (Menin-MLL): > 9.00
- hERG % Remaining 10 μM (hERG): + (“+” means <33%)
- hERG % Remaining 30 μM (hERG): + (“+” means <33%)

Structure (SMILES): CCN(C(=O)c1cc(F)ccc1Oc1cncnc1N1CC2(CCN(C[C@@H]3CC[C@@H](NS(=O)(=O)c4cccnc4)CO3)CC2)C1)C(C)C [Compound 63, N-Ethyl-5-fluoro-N-isopropyl-2-((4-(7-(((2S,5R)-5-(pyridine-3-sulfonamido)tetrahydro-2H-pyran-2-yl)methyl)-2,7-diazaspiro[3.5]nonan-2-yl)pyrimidin-5-yl)oxy)benzamide]
- pEC50 (Menin-MLL): > 7.30
- pKi (Menin-MLL): > 9.00
- hERG % Remaining 10 μM (hERG): +++ (“+++” means ≥66%)
- hERG % Remaining 30 μM (hERG): ++ (“++” means ≥33% and <66%)

Structure (SMILES): CCN(C(=O)c1cc(F)ccc1Oc1cncnc1N1CC2(CCN(C[C@@H]3CC[C@@H](NS(=O)(=O)N4CCOCC4)CO3)CC2)C1)C(C)C [Compound 64, N-Ethyl-5-fluoro-N-isopropyl-2-((4-(7-(((2S,5R)-5-(morpholine-4-sulfonamido)tetrahydro-2H-pyran-2-yl)methyl)-2,7-diazaspiro[3.5]nonan-2-yl)pyrimidin-5-yl)oxy)benzamide]
- pEC50 (Menin-MLL): > 7.30
- pKi (Menin-MLL): > 9.00
- hERG % Remaining 10 μM (hERG): +++ (“+++” means ≥66%)
- hERG % Remaining 30 μM (hERG): ++ (“++” means ≥33% and <66%)

Structure (SMILES): CCN(C(=O)c1cc(F)ccc1Oc1cncnc1N1CC2(CCN(C[C@@H]3CC[C@@H](NS(=O)(=O)c4ccccc4OC)CO3)CC2)C1)C(C)C [Compound 65, N-Ethyl-5-fluoro-N-isopropyl-2-((4-(7-(((2S,5R)-5-((2-methoxyphenyl)sulfonamido)tetrahydro-2H-pyran-2-yl)methyl)-2,7-diazaspiro[3.5]nonan-2-yl)pyrimidin-5-yl)oxy)benzamide]
- pEC50 (Menin-MLL): > 7.30
- pKi (Menin-MLL): > 9.00
- hERG % Remaining 10 μM (hERG): ++ (“++” means ≥33% and <66%)
- hERG % Remaining 30 μM (hERG): + (“+” means <33%)

Structure (SMILES): CCN(C(=O)c1cc(F)ccc1Oc1cncnc1N1CC2(CCN(C[C@@H]3CC[C@@H](NS(=O)(=O)c4cccc(OC)c4)CO3)CC2)C1)C(C)C [Compound 66, N-Ethyl-5-fluoro-N-isopropyl-2-((4-(7-(((2S,5R)-5-((3-methoxyphenyl)sulfonamido)tetrahydro-2H-pyran-2-yl)methyl)-2,7-diazaspiro[3.5]nonan-2-yl)pyrimidin-5-yl)oxy)benzamide]
- pEC50 (Menin-MLL): > 7.30
- pKi (Menin-MLL): > 9.00
- hERG % Remaining 10 μM (hERG): + (“+” means <33%)
- hERG % Remaining 30 μM (hERG): + (“+” means <33%)

Structure (SMILES): CCN(C(=O)c1cc(F)ccc1Oc1cncnc1N1CC2(CCN(C[C@@H]3CC[C@@H](NS(=O)(=O)c4cnn(C)c4)CO3)CC2)C1)C(C)C [Compound 68, N-Ethyl-5-fluoro-N-isopropyl-2-((4-(7-(((2S,5R)-5-((1-methyl-1H-pyrazole)-4-sulfonamido)tetrahydro-2H-pyran-2-yl)methyl)-2,7-diazaspiro[3.5]nonan-2-yl)pyrimidin-5-yl)oxy)benzamide]
- pEC50 (Menin-MLL): > 7.30
- pKi (Menin-MLL): > 9.00
- hERG % Remaining 10 μM (hERG): +++ (“+++” means ≥66%)
- hERG % Remaining 30 μM (hERG): +++ (“+++” means ≥66%)
- pIC50 (hERG): ≤ 4.30

Structure (SMILES): CCN(C(=O)c1cc(F)ccc1Oc1cncnc1N1CC2(CCN(C[C@@H]3CC[C@@H](NS(=O)(=O)N4CCC4)CO3)CC2)C1)C(C)C [Compound 69, 2-((4-(7-(((2S,5R)-5-(Azetidine-1-sulfonamido)tetrahydro-2H-pyran-2-yl)methyl)-2,7-diazaspiro[3.5]nonan-2-yl)pyrimidin-5-yl)oxy)-N-ethyl-5-fluoro-N-isopropylbenzamide]
- pEC50 (Menin-MLL): > 7.30
- pKi (Menin-MLL): > 9.00
- hERG % Remaining 10 μM (hERG): +++ (“+++” means ≥66%)
- hERG % Remaining 30 μM (hERG): ++ (“++” means ≥33% and <66%)
- pIC50 (hERG): 4.30 to 4.60

Structure (SMILES): CCN(C(=O)c1cc(F)ccc1Oc1cncnc1N1CC2(CCN(C[C@@H]3CC[C@@H](NS(=O)(=O)c4csc(C)n4)CO3)CC2)C1)C(C)C [Compound 71, N-Ethyl-5-fluoro-N-isopropyl-2-((4-(7-(((2S,5R)-5-((2-methylthiazole)-4-sulfonamido)tetrahydro-2H-pyran-2-yl)methyl)-2,7-diazaspiro[3.5]nonan-2-yl)pyrimidin-5-yl)oxy)benzamide]
- pEC50 (Menin-MLL): > 7.30
- pKi (Menin-MLL): > 9.00
- hERG % Remaining 10 μM (hERG): +++ (“+++” means ≥66%)
- hERG % Remaining 30 μM (hERG): ++ (“++” means ≥33% and <66%)

Structure (SMILES): CCN(C(=O)c1cc(F)ccc1Oc1cncnc1N1CC2(CCN(C[C@@H]3CC[C@@H](NS(=O)(=O)c4cnc(C)o4)CO3)CC2)C1)C(C)C [Compound 72, N-Ethyl-5-fluoro-N-isopropyl-2-((4-(7-(((2S,5R)-5-((2-methyloxazole)-5-sulfonamido)tetrahydro-2H-pyran-2-yl)methyl)-2,7-diazaspiro[3.5]nonan-2-yl)pyrimidin-5-yl)oxy)benzamide]
- pKi (Menin-MLL): > 9.00
- hERG % Remaining 10 μM (hERG): ++ (“++” means ≥33% and <66%)
- hERG % Remaining 30 μM (hERG): + (“+” means <33%)

Reference: patent publication US11919901B2 (Syndax Pharmaceuticals, Inc., priority 2021, dated 2024)
